{"source": "patent US20090270373A1", "about": "“TREATMENT OF DOWN SYNDROM WITH BENZODIAZEPINE RECEPTOR ANTAGONISTS” (Cypress Biosciences, Inc., priority 2008, published 2009)", "key": {"[1]": {"conditions": "of the intravenous bioavailability; cited from earlier work"}, "WT and Ts65Dn mice": {"tested_on": "WT and Ts65Dn mice", "assay": "Open-field locomotor assay (LMA), 30 min session", "type": "in vivo, mouse", "conditions": "WT and Ts65Dn mice", "method": "Following baseline determinations and group assignments, WT and Ts65Dn mice received intraperitoneal (i.p.) injections once/day (08:00) for the two-week duration of the drug treatment regimen (FIG. 1). Drugs were dissolved in physiological saline. Two drops of Tween 80 were used to facilitate solution formation for flumazenil. Picrotoxin was initially made up at 50× concentration in 20% ethanol and then diluted down to a […] solution with 0.4% ETOH in saline. Doses of drugs were based on previous behavioral research in mice (1 mg/kg for PTX and 10 mg/kg for flumazenil). Injections were given in a volume of 10 ml/kg. A vehicle control was run along side the treatment groups (0.4% ETOH in saline).\nFIG. 1 graphically depicts the protocol. After habituation to the animal facility, mice were tested for baseline behaviors in the open-field locomotor assay (LMA)(30 min session) and the novel object recognition assay. Primary experimental groups were divided by genotype (Ts65Dn mice and wild-type control littermates). These two groups were further divided into drug treatments (vehicle, PTX and flumazenil) with a targeted n-size of 8 mice/group (24 WT and 24 Ts65Dn mice total). The group assignments were made in a semi-random process due to constraints in animal availability (staggered shipping) and choice of initial treatment groups (e-mail documentation between Bilsky laboratory and Cypress Bioscience on file). Daily morning injections began on Day 1 and went through the morning of Day 14. On Days 7/8 and 14/15 (13:00) mice were tested in the behavioral assay. Mice were kept for an additional two weeks and re-tested on Days 21/22 and 28/29 to assess the duration of the drug treatment effect.\nGeneral levels of arousal, locomotor activity and anxiety were assessed using an automated open-field activity monitoring system (Coulbourn Instruments with TruScan software). The open field test that were run were fully automated assays that quantified many different aspects and patterns of movement, including total distance traveled, time spent moving, rearing, and various stereotypic patterns of activity. The software calculates the time spent in the middle portions of the open field versus the outer zones alongside the outside walls. These variables can be used as one measure of general anxiety levels.\nMice were placed into an open field (26 cm×26 cm) in a brightly lit room. Two sensor rings (x-y plane and a vertical z plane) generate an array of infrared beams that surround the chamber. The pattern of beam breaks was recorded and the data fed into a personal computer. The TruScan software interpreted the beam breaks to calculate the movement variables and patterns of activity, with a temporal resolution of 100 msec. A 30 minutes session was used for assessment of the mice on Day 0 (Baseline) and then on Days 1, 7, 14, 21 and 28. Data were exported into an Excel spreadsheet, graphed and analyzed using parametric and non-parametric statistics."}, "Down Syndrome patients": {"tested_on": "Down Syndrome patients", "assay": "Cognition in Down Syndrome patients, double-blind cross-over (Example 3)", "type": "in vivo, human", "conditions": "5 and 20 mg", "method": "Fifteen adult or adolescent Down Syndrome patients experiencing at least some level of cognitive impairment participate in a double-blind, cross-over comparison of […]. The drugs administered are flumazenil (5 and 20 mg), bretazenil (5 and 20 mg) or placebo. Subjects are randomly assigned to treatments according to a Williams Square design (Higgitt, supra (citing Williams, “Experimental designs balanced for the estimation of residual effects of treatments, Aust. J. Sci. Res. 2:149-168 (1949))). Each subject receives a different sequence of four treatments balanced for carry-over effects and separated by at least 1 week of wash-out period. […]\nPsychophysiological indices to be measured include: EEG, skin conductance, finger tremor, critical flicker fusion threshold, blood pressure and pulse rate, key tapping rate, and reaction time. […]\nEEG and evoked responses: These are recorded during the same EEG recording procedure. […] In addition, the four values are summed and each is expressed as a percentage of the total.\nThe averaged evoked responses are obtained from the 500 ms epoch of the EEG following each of the 32 click stimuli. […] The latency at each peak and peak-to-peak amplitudes are computed and recorded automatically. […]\nSkin conductance, blood pressure and pulse rate can be measured by the method of Higgitt et al., supra. […]"}, "Ts65Dn mice": {"tested_on": "Ts65Dn mice", "assay": "Long-term potentiation (LTP) in the dentate gyrus of Ts65Dn mice (paper Examples 1 and 2)", "type": "in vivo, mouse", "conditions": "about 1 month after cessation of drug treatment", "source_text": "Since the ability of animals to learn and remember is thought to be encoded at the synaptic level, and involves the ability of synapses to undergo long-term changes in synapse strength, long-term potentiation (LTP) in the dentate gyrus may be evaluated."}}}
{"smiles": "CCOC(=O)c1ncn2c1CN(C)C(=O)c1cc(F)ccc1-2", "note": "[flumazenil, 8-fluoro-5,6-dihydro-5-methyl-6-oxo-4H-imidazo[1,5-a]benzodiazepine-3-carboxylic acid ethyl ester]", "values": [{"measurement": "oral bioavailability", "setting": "[1]", "value": "approximately 20%"}, {"measurement": "LMA vertical rearing", "setting": "WT and Ts65Dn mice; PTX during drug administration phases, flumazenil over the 4 week testing regimen", "value": "least effect"}, {"measurement": "LMA marginal distance traveled", "setting": "WT and Ts65Dn mice; across sessions, PTX 1 mg/kg, flumazenil 10 mg/kg i.p.", "value": "very little habituation across sessions"}, {"measurement": "indicators of cognition as compared to placebo", "setting": "Down Syndrome patients", "value": "improvement in one or more indicators of cognition"}, {"measurement": "LTP in the dentate gyrus", "setting": "Ts65Dn mice", "value": "Normalized LTP"}]}
